Test [1] concerns IL-1B gene. As to the kind of experiment: Real-time PCR, IL-1B gene expression. The format is cell-based, human. The settings on record: relative to untreated control (1). The method, then:
(§1) The expression level of the following six genes (Ki-67, Survivin, Interleukin-1 beta (IL-1B), Interleukin-6 (IL-6), Cyclooxygenase-2 (COX-2) and protein kinase B (AKT1)) was determined in MCF7 and HEP2 treated with the IC50 of compound 5c. The untreated cells were used as a negative control for comparison purposes. […] Ki-67 is a popular proliferation marker for human tumor cells. […] Survivin is an inhibitor of apoptotic protein (IAP) family member, which is essential for cell division. The lowering of the expression of survivin inhibited tumor development, triggered apoptosis, and made tumor cells more susceptible to radiation and chemotherapy (Albadari and Li [2023]). […] IL-1B is a pleiotropic mediator of inflammation, which is produced in response to a variety of stressors (Aarreberg et al. [2019]). […] IL-6 is a pro-inflammatory cytokine that plays a significant role in the proliferation and differentiation of human cells. It promotes the production of numerous proteins involved in acute inflammation (Uciechowski and Dempke [2020]). […]
(§2) The expression level of the following six genes (Ki-67, survivin, AKT1, IL-6, COX2, and IL-1B) was examined using real-time polymerase chain reaction (qPCR) (Mohamed et al. [2023a]). […] The cycle threshold (Ct) was determined automatically. […]
In general terms: Real-time PCR tracks product formation cycle by cycle.

The subject of test [2] is IL-6 gene. As to the kind of experiment: Real-time PCR, IL-6 gene expression. Format: cell-based, human. To be noted: relative to untreated control (1). The method, then: as §1, §2
[3] abbreviates: HEP2 cells treated with IC50 of 5c.
The mark [4] stands for this setting: MCF7 cells treated with IC50 of 5c.

For `COc1ccc(NC(=O)COc2ccc(C=CC(=O)c3cccs3)cc2)cc1` [Compound 5c, N-(4-Methoxyphenyl)-2-(4-(3-oxo-3-(thiophen-2-yl)prop-1-en-1-yl)phenoxy)acetamide], the IL-1B expression folding in test [1] (setting [3]) is recorded as 0.461±0.069 fold; in test [1] (setting [4]), 0.4008±0.116 fold. Further, the IL-6 expression folding is 0.464±0.08 fold in test [2] (setting [3]) and 0.814±0.079 fold in test [2] (setting [4]).

For the origin of these results see publication PMC11582173, “Synthesis, cytotoxicity, anti-inflammatory, anti-metastatic and anti-oxidant activities of novel chalcones incorporating 2-phenoxy-N-arylacetamide and thiophene moieties: induction of apoptosis in MCF7 and HEP2 cells” (Naunyn-Schmiedeberg's Archives of Pharmacology, 2024).
